The record followed here is US20230135761A1, “TRANSGENIC PLANTS HAVING PROLONGED RIPENING AND REDUCED SUSCEPTIBILITY TO PATHOGENS” (MIGAL GALILEE RESEARCH INSTITUTE LTD, priority 2020, published 2023).

Structures are written as SMILES.

In the experiment the test system is ICDH1 mRNA. The experiment can be described thus: ICDH1 mRNA levels by real time PCR in 1-MCP-treated tomato fruits. Type of experiment: in vivo, Solanum lycopersicum; cv. Micro Tom. The settings on record: 1-MCP-treated vs untreated Micro-Tom tomatoes; 24 hr at 20° C.; stages MG, BRK, EO; FIG. 2. On the procedure:
Tomato (Solanum lycopersicum; cv. Micro Tom) plants were grown under natural light in a climate-controlled greenhouse, at 24° C. during the day and 18° C. during the night. 1-MCP was applied using SmartFresh powder (Rohm and Haas, Philadelphia, Pa., USA) containing 0.14% 1-MCP as active ingredient, dissolved in warm water at a concentration of 2,000 nL·mL^−1 1-MCP (stock solution). Fruits were enclosed in a 30 L airtight barrel and the stock solution was injected to a final concentration of […]. Treatment duration was 24 hr at 20° C. For the control, fruits were treated identically excluding 1-MCP application (Gamrasni et al., 2017).
RNA was extracted using NucleoSpin® RNA Plant kit (Macherey-Nagel) according to the manufacturer's protocol. cDNA was prepared from 1 μg total RNA with Verso cDNA Synthesis Kit (ThermoFisher Scientific). The reaction was performed at 42° C. for 30 min. followed by inactivation at 95° C. for 2 min. […] Relative expression ratio was normalized to the S1ASR gene (Solyc04g071610) used as an internal control (Relative RNA levels were determined by the delta-delta Ct method). The significance of results (n=3) was evaluated by independent t-test at *P<0.05 using the SPSS Statistics 20 software (IBM, USA).
(In general: Real-time PCR tracks product formation cycle by cycle.)

As for `CC1=CC1` [1-MCP, 1-methylcyclopropene], the “ICDH1 mRNA production / levels” value is listed as “reduced significantly”.
